According to patent publication US8003595B2, “Amino acid sequences facilitating penetration of a substance of interest into cells and/or cell nuclei” (Cellectis, priority 2000, dated 2011):
Where two headings read alike, the source gives them in different places. Marks after values point to notes of the source that are not given here.

Assays:
[1] = ELISA fixation of biotinylated peptides on sensitized plates; type: binding; settings: for EC50: Table 4, read-out: avidity: quantity of peptides necessary to obtain 50% fixation, Chondroitin C; for Kd: read-out: avidity (Kd), quantity of peptides necessary to obtain 50% fixation, Chondroitin C, Table 5
[2] = as above; type: binding; settings: for EC50: Table 4, read-out: avidity: quantity of peptides necessary to obtain 50% fixation, Chondroitin B; for Kd: read-out: avidity (Kd), quantity of peptides necessary to obtain 50% fixation, Chondroitin B, Table 5
DNA = assay: as above; type: binding; settings: ELISA plates sensitized with DNA; read-out: avidity: quantity of peptides necessary to obtain 50% fixation, DNA
Description: (§1) The capacity of peptides SEQ ID NO: 1 to 21 to attach themselves to DNA and heparin is evaluated on ELISA plates sensitized with DNA or heparin. Dilutions of biotinylated peptides are deposited on the plates and their fixation is shown using streptavidin conjugated with peroxidase. […] The avidity of each of the peptides for DNA or heparin is evaluated by the quantity (×10^−6 M) of peptides necessary to obtain 50% fixation.

[3] = as above; type: binding; settings: for EC50: ELISA plates sensitized with heparin, Table 4, read-out: avidity: quantity of peptides necessary to obtain 50% fixation, Heparin; for Kd: read-out: avidity (Kd), quantity of peptides necessary to obtain 50% fixation, Heparin
Description: as §1

[4] = as above; type: binding; settings: for EC50: Table 4, read-out: avidity: quantity of peptides necessary to obtain 50% fixation, Chondroitin A; for Kd: read-out: avidity (Kd), quantity of peptides necessary to obtain 50% fixation, Chondroitin A, Table 5
H1299 cells [5] = assay: Internalization of biotinylated peptide/S-PO complexes; type: cell-based, human
Description: A biotinylated/S-PO peptide or biotinylated/A-PO complex (A-PO for avidin-peroxidase) is prepared extemporaneously in two ways:
1) either in a peptide: S-PO or A-PO molar ratio of 4:1 (for example, 1.4 μg of peptide with a molecular weight of 3500 to 10 μg of S-PO; the weight of S-PO used varies depending on the peptides since their molecular weights are different).
2) or in a peptide: S-PO or A-PO molar ratio of 25:1 (for example 1.7 μg of peptide with a molecular weight of 3500 to 1 μg of S-PO).
The complexes are prepared by incubating the biotinylated peptide with S-PO or A-PO in PBS in a volume of 5 to 10 μl for 15 minutes at laboratory temperature. They are then diluted in 1 ml of complete culture medium, filtered on a 0.2 micron membrane and incubated with the cells for 4 hours. The cells are then washed three times with PBS.
To study the penetration of the complexes under a microscope, the cells are fixed as before for 15 minutes in ethanol at −20° C., they are washed with PBS, and the activity of the internalized peroxidase is shown by diaminobenzidine in the presence of H2O2. To measure the quantity of peptide/S-PO or A-PO complexes internalized, the cells are trypsinized, transferred into microtubes and counted. They are washed twice by centrifugation, then the residue is suspended in 200 μl of lysis buffer (Tris buffer, 0.1 M, pH8, 0.5% Nonidet). After 15 minutes, the peroxidase contained in the lysis buffer is dosed onto 96-well plates with ortho-dianisidine and H2O2 by comparison with a standard curve for S-PO. The reading is taken at 450 nm. The quantity contained in the different samples is expressed in picograms (pg) per 10^4 cells.
Table 7 below reports the results of evaluating the influence of SEQ ID NO: 1 on the penetration of peptides coupled to SEQ ID NO: 1 into H1299 cells, where
Concentration a: 25 peptides to one molecule of S-PO (1 μg),
Concentration b: 4 peptides to one molecule of S-PO (10 μg).

H1299 cells [6] = assay: Internalization of covalent peptide-peroxidase conjugates; type: cell-based, human; settings: for quantity of peptide internalized: 2 hours
Description: To evaluate more directly the penetration of the peptides, avoiding the avidin-peroxidase bias, some of the peptides in sequences SEQ ID NO: 25 to 48 were conjugated covalently with cysteine in the C-terminal position of the peptide to peroxidase. The peptides were coupled with peroxidase in the following way:
One mg of peroxidase activated with maleimide (Sigma) in 100 μl of sodium phosphate buffer, NaCl 0.15 M, EDTA 5 mM, had 1 mg of peptide added to it. After 2 hours at laboratory temperature, β-mercaptoethanol is added to a final concentration of 1.5 mM for 15 minutes. The uncoupled peptide is eliminated by centrifugation on ultrafiltration membranes (cut-off threshold=30,000 Daltons, Sartorius), followed by three washings in sodium phosphate buffer 0.1 M, pH 7.4 containing 0.15 M NaCl.
The H1299 cells are incubated for 2 hours with the conjugates at increasing concentrations of peptide-peroxidase in the culture medium, then washed with PBS. The cells are lysed and the quantity of peptide internalized is evaluated by the dosage of peroxidase in the lysate of the cells with reference to a curve established with peptide-peroxidase.
The quantity of peptide internalized (pg/10^3 cells), depending on the concentrations of conjugates in the culture medium, is shown in Table 8 below.
It appears that the higher the concentration of peptide-peroxidase conjugate in the culture medium, the more the quantity internalized increases. To compare the penetration of the conjugates by cell type, the cells from different lines were incubated with 0.2 μg/ml of peptide-peroxidase conjugate for 2 hours, and the quantity of peroxidase dosed in the lysates. Table 9 and Table 9B below give the results expressed in pg/10^3 cells. The quantity of each peptide internalized in the different lines generally varies only from single to double.

cells = assay: Penetration of biotinylated peptides inside cells (microscopy, S-PO coloration); type: cell-based; settings: biotinylated peptides 50 to 6 μg/ml, 1-18 hours, revealed with S-PO
Description: The cells are cultivated in the presence of the different peptides carrying, on the N-terminal side, biotin in decreasing concentrations (50 to 6 μg/ml) in the culture medium for variable times (1-18 hours).
At the end of the culture, the cells are washed three times with PBS (0.15 M NaCl buffered with 0.01 M potassium phosphate buffer pH 7.4) then fixed 15 minutes in ethanol at −20° C. The penetration of the peptide is evaluated after incubation for 30 minutes with streptavidin conjugated with peroxidase (abbreviated S-PO for streptavidin-peroxidase). Then, the S-PO is eliminated, and the cells are washed. […] With the other peptides, positive colorations, but of variable intensity, were noted.

[7] = Conc. a: 25 peptides to one molecule of S-PO (1 μg)
[8] = Conc. b: 4 peptides to one molecule of S-PO (10 μg)

Row | Substance | EC50 [1] [nM] | EC50 [2] [nM] | EC50 (DNA) [nM] | EC50 [3] [nM] | EC50 [4] [nM] | also measured
1 | GRPRESGKKRKRKRLKP [compound 21] | 120 | 120 | 200 | 70 | 120 | 
2 | KSRK [compound 18] | > 134000 | > 134000 | > 134000 | > 134 | > 134000 | 
3 | KSRKKSRK [compound 19] | > 74000 | > 74000 | > 74000 | > 74000 | > 74000 | 
4 | LRKRLLRD [compound 17] | > 150000 | > 150000 | > 150000 | > 150000 | > 150000 | 
5 | LRRERQSRLRRERSQSR [SEQ ID NO: 39] |  |  |  |  |  | Kd [1]: 100 nM; Kd [2]: 100 nM; Kd ([3]; Table 5): 100 nM; Kd [4]: 100 nM
6 | RGVRPRVTRMDVRHVRPRVTRMDV [compound 15] | 5000 | 4000 | 3000 | > 30000 | 200 | 
7 | RHVRPRVTRMDVVKRGLKLRHVRPRVTRMDV [compound 16] | 2 | 9 | 19 | 24 | 12 | 
8 | RKGFYKRKQCKP [SEQ ID NO: 20] |  |  |  |  |  | S-PO internalized (H1299 cells [5]; peptide: S-PO complexes of 4:1, peptide concentration of 1 μg): 431 pg/10^4 cells; Kd [1]: 100 nM; Kd [2]: 40 nM; Kd ([3]; Table 5): 70 nM; Kd [4]: 60 nM
9 | RKGFYKRKQCKP [compound 20] | 100 | 40 | 90 | 70 | 60 | 
10 | RKKRRRGDRKKRRRGD [SEQ ID NO: 28] |  |  |  |  |  | avidity (Kd), quantity of peptides necessary to obtain 50% fixation, Heparin ([3]; Table 5): lost its affinity for heparin; Kd ([3]; Table 5): 407 nM; percentage of quantity of peroxidase internalized compared to quantity deposited (H1299 cells [6]; 0.01 μg/ml): (0.006)* %; percentage of quantity of peroxidase internalized compared to quantity deposited (H1299 cells [6]; 0.1 μg/ml): (1.6) %; percentage of quantity of peroxidase internalized compared to quantity deposited (H1299 cells [6]; 0.5 μg/ml): (7.6) %; percentage of quantity of peroxidase internalized compared to quantity deposited (H1299 cells [6]; 1 μg/ml): (8.8) %; quantity of peptide internalized (H1299 cells [6]; peptide-peroxidase 0.01 μg/ml): 0.006 pg/10^3 cells; quantity of peptide internalized (H1299 cells [6]; peptide-peroxidase 0.1 μg/ml): 1.7 pg/10^3 cells; quantity of peptide internalized (H1299 cells [6]; peptide-peroxidase 0.5 μg/ml): 37.9 pg/10^3 cells; quantity of peptide internalized (H1299 cells [6]; peptide-peroxidase 1 μg/ml): 8860 pg/10^3 cells
11 | RQKYNKRAMDY [compound 4] | 5000 | 6200 | 4000 | 5000 | 5600 | 
12 | SEQ ID NO: 4: Peptide corresponding to the hypervariable area CD3 of the anti-DNA monoclonal murine antibody F4.1 (RQKYNKRAMDY; Mus musculus x Rattus norvegicus) |  |  |  |  |  | intracellular cytochemical coloration (cells): do not give any positive intracellular cytochemical coloration; S-PO internalized (H1299 cells [5]; [7]): 2 pg/10^4 cells; S-PO internalized (H1299 cells [5]; [8]): 280 pg/10^4 cells
13 | SEQ ID NO: 5: Peptide containing SEQ ID NO: 1 and SEQ ID NO: 4 (VKRGLKLRQKYNKRAMDY; Homo sapiens - Mus musculus - Rattus norvegicus) |  |  |  |  |  | intracellular cytochemical coloration (cells): intense coloration; S-PO internalized (H1299 cells [5]; [7]): 100 pg/10^4 cells; S-PO internalized (H1299 cells [5]; [8]): 6250 pg/10^4 cells
14 | SEQ ID NO: 11: SEQ ID NO: 1 and CDR3 of the human anti-DNA monoclonal antibody RT72 (VKRGLKLGYYDFWSGPGKN; listed as Homo sapiens) |  |  |  |  |  | intracellular cytochemical coloration (cells): do not give any positive intracellular cytochemical coloration
15 | SEQ ID NO: 12: Peptide containing the NLS sequence of cells 3T3 and SEQ ID NO: 6 (NVKKPKLTYYSDTVKGRFTRQKYNKRA; Mus musculus x Rattus norvegicus) |  |  |  |  |  | intracellular cytochemical coloration (cells): do not give any positive intracellular cytochemical coloration
16 | SEQ ID NO: 15: twice the CDR3 region peptide of anti-DNA human monoclonal antibody NE-1 (RGVRPRVTRMDVRHVRPRVTRMDV; listed as Homo sapiens) |  |  |  |  |  | S-PO internalized (H1299 cells [5]; [7]): 250 pg/10^4 cells; S-PO internalized (H1299 cells [5]; [8]): 6670 pg/10^4 cells
17 | SEQ ID NO: 16: inclusion, in position 13-19, of SEQ ID NO: 1 in SEQ ID NO: 15 (RHVRPRVTRMDVVKRGLKLRHVRPRVTRMDV; listed as Homo sapiens) |  |  |  |  |  | S-PO internalized (H1299 cells [5]; [7]): 430 pg/10^4 cells; S-PO internalized (H1299 cells [5]; [8]): 5220 pg/10^4 cells
18 | TYYSDTVKGRFTRQKYNKRA [compound 6] | 220 | 250 | 190 | 160 | 240 | 
19 | VKRGLKL [compound 1] | > 100000 | > 100000 | > 100000 | > 100000 | > 100000 | 
20 | VKRGLKLRQKYNKRAMDY [compound 5] | 110 | 110 | 110 | 110 | 130 | 
21 | VKRGLKLTYYSDTVKGRFTRQYNKRA [compound 7] | 60 | 40 | 50 | 50 | 60 | 
22 | VKRGLKLVKRGLKL [compound 2] | 550 | 600 | 2200 | 760 | 550 | 
23 | VKRGLKLVKRGLKLVKRGLKL [compound 3] | 35 | 41 | 50 | 41 | 37 | 
24 | VKRGLKLVRRSGRVVVPAAPRNRD [compound 9] | > 8000 | 500 | 3700 | 3700 | 17 | 
25 | VRRSGRVVVPAAPRNRD [compound 8] | > 150000 | > 150000 | > 150000 | > 150000 | > 150000 | 
